For 28 compounds, IC50 results are on record in patent US20110098325A1, “PYRIDINE BENZAMIDES AND PYRAZINE BENZAMIDES USED AS PKD INHIBITORS” (CANCER RESEARCH TECHNOLOGY LIMITED, priority 2006, published 2011).

The assay has as its target T1, Murine PKD1 kinase domain (Mus musculus, UniProt Q62101).
T1 construct: hexahistidine (pFastBac HTb leader) (N); made in house; host or cells: Sf9 insect cells, baculovirus (Bac-to-Bac HT, pFastBac HTb)
T1 sequence (Q62101 with tags, fused parts or gaps R683W): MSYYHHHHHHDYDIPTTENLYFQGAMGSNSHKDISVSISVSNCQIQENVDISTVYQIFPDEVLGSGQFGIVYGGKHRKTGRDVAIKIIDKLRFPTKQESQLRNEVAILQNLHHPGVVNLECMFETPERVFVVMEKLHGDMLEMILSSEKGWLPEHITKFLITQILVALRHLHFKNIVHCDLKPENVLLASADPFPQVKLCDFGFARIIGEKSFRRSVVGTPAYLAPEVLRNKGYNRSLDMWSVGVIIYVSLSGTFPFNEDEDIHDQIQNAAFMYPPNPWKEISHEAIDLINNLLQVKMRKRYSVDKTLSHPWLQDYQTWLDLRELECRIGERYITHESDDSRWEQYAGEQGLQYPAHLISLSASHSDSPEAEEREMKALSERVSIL
The experiment in a line: PKD1 (Murine Kinase Domain) Enzyme Activity Assay (IMAP fluorescence polarisation). Particulars: 10 μM ATP, 60 minutes, room temperature. It is filed as biochemical. The source says:
The DNA sequence corresponding to murine PKD1 (see FIG. 1) was inserted into pFastBAc Htb (Invitrogen, USA) at BamH1 and EcoR1 sites using standard molecular biology techniques.
The PKD1 described above was expressed as a hexahistidine tagged protein construct using a commercially available baculoviral expression system that induces protein production in insect cell culture (Bac-to-Bac® HT Baculovirus Expression System, Invitrogen). Protein was typically expressed by inoculating 1 L of sf9 cells with a genetically modified baculovirus containing the gene for the kinase domain of PKD1. Sf9 cells were obtained from ICR Ltd.
Purification of PKD1 was achieved by standard chromatographic procedures. Capture from crude centrifuged lysed cell supernatant was achieved using metal affinity chromatography (GE Healthcare Life Sciences, HiTrap Chelating chromatography column), and fractions showing PKD1 (as assessed by gel electrophoresis and western blot) were further purified by a single polish purification step performed using a mono Q anion exchange chromatography system (GE Healthcare Life Sciences, HiTrap HP Q column). […] This protocol describes the method for screening compounds as inhibitors of Protein Kinase D activity in a 384 well microplate format fluorescence polarisation IMAP assay performed using the Biomek FX.
Kinase Enzyme: Murine PKD1 kinase domain at ˜100 μg/mL, was purified from baculovirus (as described above), obtained from aliquots stored at −70° C. PKD was prepared with a final concentration of 0.1 μg/mL by diluting 1:300 in Reaction Buffer (30 μL per 9 mL-5 mL per plate with an additional 4 mL dead volume) and vortexing prior to use. It was necessary to check this concentration regularly in case of enzyme degradation.
(also known as MAPKAP K2 substrate) was obtained from Molecular Devices (Product code R7127). It was used at 300 nM by diluting 20 μM stock 1:66 in Kinase/Reaction Buffer (135 μL per 9 mL; 75 μL per 5 mL Reaction Buffer for blank wells requiring <1 mL per place with an additional 4 mL dead volume).
A 1 mM ATP stock in Reaction Buffer was prepared from a 10 mM stock in 20 mM NaOH and stored as aliquots at −70° C. It was used at 40 μM by diluting 1 mM stock 1:25 in Reaction Buffer (240 μL per 6 mL-2 mL per plate with an additional 4 mL dead volume) and vortexing prior to use.
IMAP Reagents: IMAP Binding Reagent (product code R7207) and Binding Buffer (product code R7208) were obtained from Molecular Devices and stored at +4° C. The beads were gently re-suspended before diluting by 1:400 in buffer (Binding Buffer is supplied as a 5× stock and so was diluted with water prior to use) and then vortexing before addition to wells. 16 mL water with 4 mL Binding Buffer and 50 μL Binding Reagent were used per plate (17 mL per plate with an additional 3 mL dead volume).
13 μL Substrate in Reaction Buffer was added to ‘blank’ wells to give 200 nM reaction concentration. […] 2 μL 10% DMSO/water was added to ‘blank’ and ‘control’ wells. 5 μL ATP in Reaction Buffer was added to all wells to give 10 μM reaction concentration. The reaction mixture was then incubated at room temperature for 60 minutes. The incubation period was followed by the addition of 40 μL IMAP Binding Reagent in Binding Buffer to all wells. The reaction was then further incubated at room temperature for […].
Percentage inhibition was calculated based on activity of the test sample minus the average values in the blank wells relative to the average values measured in control wells minus the average values in the blank wells.
IC50 values were calculated from 10 point dose sigmoid ‘dose-response’ curves using Xlfit software (IDBS inc, USA). Data were fitted to a 4 parameter logistic model/sigmoidal dose response:
where: A=fit minimum (locked to 0); B=fit maximum (locked to 100); C=fit midpoint (pre-fit to 1); D=slope at linear portion of curve, hillslope (pre-fit to 0.1)
In general terms: Polarisation of emitted light reports the rotation of a fluorescent probe.

pIC50: −log10 of the molar value.

In general, pIC50 refers to the negative decadic logarithm of the IC50, by convention in mol/L. Read a low pIC50 as a high IC50. `COc1cc(-c2cncc(-c3cccc(C(=O)NCCN(C)C)c3)n2)cc(OC)c1OC` [X-003, N-(2-Dimethylamino-ethyl)-3-[6-(3,4,5-trimethoxy-phenyl)-pyrazin-2-yl]-benzamide] gave a pIC50 of 5.00 to 6.00.

Take `CN(C)CCNC(=O)c1cccc(-c2cnc(N)c(-c3ccc(O)c(F)c3)c2)c1` [Y-042, 3-[6-Amino-5-(3-fluoro-4-hydroxy-phenyl)-pyridin-3-yl]-N-(2-dimethylamino-ethyl)-benzamide]: the pIC50 is > 6.00.

On to `CN(C)CCNC(=O)c1cccc(-c2cnc(N)c(-c3ccc(Oc4ccccc4)cc3)c2)c1` [Y-067, 3-[6-Amino-5-(4-phenoxy-phenyl)-pyridin-3-yl]-N-(2-dimethylamino-ethyl)-benzamide], for which the negative logarithm of the IC50 (pIC50) is > 6.00.

For the compound `COc1cc(-c2nc(-c3cccc(C(=O)NCCN(C)C)c3)cnc2N)ccc1F` [X-016, 3-[5-Amino-6-(4-fluoro-3-methoxy-phenyl)-pyrazin-2-yl]-N-(2-dimethylamino-ethyl)-benzamide], the pIC50 is > 6.00.

Compound `COc1ccc(-c2cc(-c3cccc(C(N)=O)c3)cnc2N)cc1OC` [Y-034, 3-[6-Amino-5-(3,4-dimethoxy-phenyl)-pyridin-3-yl]-benzamide] gave a pIC50 of 5.00 to 6.00.

In the case of `COC(=O)c1ccc(-c2cc(-c3cccc(C(=O)NCCN(C)C)c3)cnc2N)cc1OC` [Y-066, 4-{2-Amino-5-[3-(2-dimethylamino-ethylcarbamoyl)-phenyl]-pyridin-3-yl}-2-methoxy-benzoic acid methyl ester], the negative-log IC50 (pIC50) was > 6.00.

`COc1ccc(-c2cc(-c3cccc(C(=O)NCCN(C)C)c3)cnc2N)cc1` [Y-063, 3-[6-Amino-5-(4-methoxy-phenyl)-pyridin-3-yl]-N-(2-dimethylamino-ethyl)-benzamide]: the negative logarithm of the IC50 (pIC50) is > 6.00.

The compound `COc1ccccc1-c1cc(-c2cccc(C(=O)N3CCN(C)CC3)c2)cnc1N` [Y-003, {3-[6-Amino-5-(2-methoxy-phenyl)-pyridin-3-yl]-phenyl}-(4-methyl-piperazin-1-yl)-methanone] gave a pIC50 of 5.00 to 6.00.

Turning to `COc1cc(-c2cc(-c3cccc(C(=O)NCCCN(C)C)c3)cnc2N)ccc1O` [Y-060, 3-[6-Amino-5-(4-hydroxy-3-methoxy-phenyl)-pyridin-3-yl]-N-(3-dimethylamino-propyl)-benzamide], the pIC50 is > 6.00.

As to `CN(C)CCNC(=O)c1cccc(-c2cnc(N)c(-c3ccc(F)cc3)c2)c1` [Y-058, 3-[6-Amino-5-(4-fluoro-phenyl)-pyridin-3-yl]-N-(2-dimethylamino-ethyl)-benzamide], the pIC50 was > 6.00.

Take `CN(C)CCNC(=O)c1cccc(-c2cnc(N)c(-c3ccc4ccccc4c3)c2)c1` [Y-020, 3-(6-Amino-5-naphthalen-2-yl-pyridin-3-yl)-N-(2-dimethylamino-ethyl)-benzamide]: the pIC50 is > 6.00.

Turning to `NC(=O)c1cccc(-c2cnc(N)c(-c3ccc4[nH]ccc4c3)c2)c1` [Y-025, 3-[6-Amino-5-(1H-indol-5-yl)-pyridin-3-yl]-benzamide], the pIC50 is > 6.00.

As to `COc1cncc(-c2cc(-c3cccc(C(=O)NCCN(C)C)c3)cnc2N)c1` [Y-089, 3-(2-Amino-5′-methoxy-[3,3′]bipyridinyl-5-yl)-N-(2-dimethylamino-ethyl)-benzamide], the negative-log IC50 (pIC50) is > 6.00.

As for `CCOc1cccc(-c2cc(-c3cccc(C(=O)NCCN(C)C)c3)cnc2N)c1` [Y-073, 3-[6-Amino-5-(3-ethoxy-phenyl)-pyridin-3-yl]-N-(2-dimethylamino-ethyl)-benzamide], the pIC50 is 5.00 to 6.00.

Regarding `CN(C)CCNC(=O)c1cccc(-c2cnc(N)c(-c3ccc4c(c3)CCO4)c2)c1` [Y-028, 3-[6-Amino-5-(2,3-dihydro-benzofuran-5-yl)-pyridin-3-yl]-N-(2-dimethylamino-ethyl)-benzamide], the negative-log IC50 (pIC50) is > 6.00.

Take `CN(C)CCNC(=O)c1cccc(-c2cnc(N)c(-c3cccc4ncccc34)c2)c1` [Y-022, 3-(6-Amino-5-quinolin-5-yl-pyridin-3-yl)-N-(2-dimethylamino-ethyl)-benzamide]: the negative-log IC50 (pIC50) is > 6.00.

For the compound `CN(C)CCNC(=O)c1cccc(-c2cnc(N)c(-c3ccc(C(F)(F)F)cc3)c2)c1` [Y-069, 3-[6-Amino-5-(4-trifluoromethyl-phenyl)-pyridin-3-yl]-N-(2-dimethylamino-ethyl)-benzamide], the pIC50 is > 6.00.

`COc1cccc(-c2cc(-c3cccc(C(=O)NCCN(C)C)c3)cnc2N)c1` [Y-048, 3-[6-Amino-5-(3-methoxy-phenyl)-pyridin-3-yl]-N-(2-dimethylamino-ethyl)-benzamide]: the pIC50 is > 6.00.

In the case of `CN(C)CCNC(=O)c1cccc(-c2cnc(N)c(-c3ccc(C(=O)c4ccccc4)cc3)c2)c1` [Y-070, 3-[6-Amino-5-(4-benzoyl-phenyl)-pyridin-3-yl]-N-(2-dimethylamino-ethyl)-benzamide], the pIC50 was > 6.00.

`CN(C)CCNC(=O)c1cccc(-c2cnc(N)c(-c3cccc4cnccc34)c2)c1` [Y-018, 3-(6-Amino-5-isoquinolin-5-yl-pyridin-3-yl)-N-(2-dimethylamino-ethyl)-benzamide] showed a negative logarithm of the IC50 (pIC50) of 5.00 to 6.00.

`CN(C)CCNC(=O)c1cccc(-c2cnc(N)c(-c3ccc(O)cc3)c2)c1` [Y-079, 3-[6-Amino-5-(4-hydroxy-phenyl)-pyridin-3-yl]-N-(2-dimethylamino-ethyl)-benzamide]: the negative logarithm of the IC50 (pIC50) was > 6.00.

Turning to `CN(C)CCNC(=O)c1cccc(-c2cnc(N)c(-c3cccc(O)c3)c2)c1` [Y-077, 3-[6-Amino-5-(3-hydroxy-phenyl)-pyridin-3-yl]-N-(2-dimethylamino-ethyl)-benzamide], the pIC50 was > 6.00.

Regarding `COc1cccc(-c2nc(-c3cccc(C(=O)NCCN(C)C)c3)cnc2N)c1` [X-026, 3-[5-Amino-6-(3-methoxy-phenyl)-pyrazin-2-yl]-N-(2-dimethylamino-ethyl)-benzamide], the negative logarithm of the IC50 (pIC50) was > 6.00.

On to `CN(C)CCNC(=O)c1cccc(-c2cnc(N)c(-c3cc(Cl)cc(Cl)c3)c2)c1` [Y-037, 3-[6-Amino-5-(3,5-dichloro-phenyl)-pyridin-3-yl]-N-(2-dimethylamino-ethyl)-benzamide], for which the pIC50 was > 6.00.

`COc1cc(-c2cc(-c3cccc(C(N)=O)c3)cnc2N)ccc1O` [Y-001, 3-[6-Amino-5-(4-hydroxy-3-methoxy-phenyl)-pyridin-3-yl]-benzamide]: the pIC50 was > 6.00.

For `CN(C)CCNC(=O)c1cccc(-c2cnc(N)c(-c3ccoc3)c2)c1` [Y-017, 3-(6-Amino-5-furan-3-yl-pyridin-3-yl)-N-(2-dimethylamino-ethyl)-benzamide], the negative-log IC50 (pIC50) is > 6.00.

`CN(C)CCNC(=O)c1cccc(-c2cnc(N)c(-c3ccc4c(c3)OCO4)c2)c1` [Y-010, 3-(6-Amino-5-benzo[1,3]dioxol-5-yl-pyridin-3-yl)-N-(2-dimethylamino-ethyl)-benzamide]: the negative logarithm of the IC50 (pIC50) is > 6.00.

With `CN(C)CCNC(=O)c1cccc(-c2cnc(N)c(-c3ccc4cc(O)ccc4c3)c2)c1` [Y-082, 3-[6-Amino-5-(6-hydroxy-naphthalen-2-yl)-pyridin-3-yl]-N-(2-dimethylamino-ethyl)-benzamide], the pIC50 is > 6.00.
